Test results reported in patent publication US4863902A, “Treatment of cancer” (Wakunaga Seiyaku Kabushiki Kaisha, priority 1985, dated 1989).

Columns and labels:
[1] = test system: MX-1 (human breast cancer); assay: Tumor weight of transplanted human breast cancer in nude mice; assay type: in vivo, mouse (human tumor xenograft); details: Table 4, adriamycin 10 mg/Kg, hEGF 100 μg/Kg on days 1, 8, 10 and 13, average ± standard error of 8 mice
Protocol: After BALB/c AJcl-nu strain male nude mice were preliminarily fed for one week in an aseptic clean rack maintained at a constant temperature, (23±0.5°
C.) and a constant humidity (60±5%), those which appeared to be healthy weighing around 20 g were provided for the present experiment in 8 mice per group. The mice employed in the present experiments hereinafter were fed under the above environment.
MX-1 (human breast cancer) was cut into sizes of about 1 mm square and transplanted subcutaneously on the right side of mouse axilla by a cell transplanting needle (trocker). 17 days after transplantation, the size of tumor, namely the longer diameter (a mm) and shorter diameter (b mm) were measured and the tumor weight was calculated by the following formula similarly as for Colon 26.
(§1) Tumor weight (mg)=ab^2 /2
(§2) Before carrying out experiments, tumor weights were measured immediately before administration of the compounds (the day 17 after tumor transplantation) and the mice were grouped into 3 groups by use of random numbers so that there may be no difference in average value of the tumor weights on initiation of experiments between the respective groups to make even the average values of tumor weights of the respective groups, and thereafter the compounds were administered to the respective groups.
Administration of the compounds was conducted 4 times as the total on the day 1, the day 8, the day 10 and the day 13. The test solutions were as shown below.

[2] = test system: Colon adenocarcinoma 26 (mouse colon adenocarcinoma); assay: Tumor weight of transplanted Colon adenocarcinoma 26 in BALB/c mice; assay type: in vivo; details: for antitumor effect potentiating action, same experiment as Experimental Example 13: in combination with cyclophosphamide in place of 5-FU
Protocol: After BALB/c mice were preliminarily fed in a thermostat (23°±0.5° C.), humidistat (60±5%) room for 1 week, those which appear to be healthy weighing 18-20 g were provided for the present experiment in 6-12 mice per 1 group.
(§3) Colon adenocarcinoma 26 (mouse colon adenocarcinoma) was minced into pieces and about 0.1 to 0.2 ml thereof was transplanted subcutaneously on the right side of mouse abdomen by a cell transplanting needle (trocker). Six days after transplantation, the size of tumor, namely longer diameter (a mm) and shorter diameter (b mm) of tumor were measured and the tumor weight was calculated according to the formula shown below [Instruction 14 (NCI) 1980].
as §1
as §2, with “compounds” for “compounds (the day 17 after tumor transplantation)”
In this FIGURE, the axis of abscissa indicates the experimental days with the day of compound administration being the day 1, and the axis of ordinate indicates tumor cell growth ratio which is the ratio of the tumor weight after elapse of the respective days relative to the tumor weight on the day 1 as being 100%.

receptor = receptor (Homo sapiens, UniProt P00533); details: J. Biol. Chem., 247, 7659 (1972); cited from earlier work
[3] = test system: Colon adenocarcinoma 38 (mouse colon adenocarcinoma); assay: Tumor weight of transplanted Colon adenocarcinoma 38 in C57BL/6 mice; assay type: in vivo; details: for antitumor effect of (a) + (b) (quantity not headed; method of Experimental Example 4): Table 21
Protocol: as §3, with “38” for “26”, “Eleven” for “Six”
as §1
In the Table, days indicate the experimental days with the day of compound administration being as the day 1, and the tumor weight immediately before administration of compound of day 1 is made 100. The respective values show the average value ± standard error of case numbers of 10 to 20, in the Table, the marks of (*), * and *** indicate the statistical significance difference of the combined administration group relative to the 5-FU single administration group (the definition of P is as defined above).

[4] = test system: mouse ovarian tumor M5076; assay: Tumor weight of solid tumor of mouse ovarian tumor in BDF1 mice; assay type: in vivo; details: used together with mytomycin C in place of cisplatin
Protocol: BDF1 male mice were employed. The feeding conditions were the same as in Experimental Example 1.
Mouse ovarian tumor M5076 was transplanted subcutaneously at the axialla of mouse in 1-2×10^6 cells per mouse. 12 days after transplantation, the size of tumor was measured according to the same method as in Experimental Example 1 (Colon 26) and the tumor weight was calculated.
The grouping operation on initiation of Experiments was conducted in the same manner as in Experimental Example 1. The compounds were administered in the same manner as in Experimental Example 9.
The experiment was carried out in the samme manner as in Experimental Examples 1, 7 and as in Experimental Example 17 for others.

[5] = (a) Adriamycin, Mixed injection
[6] = (a) Adriamycin, Separate injection
[7] = (a) Cisplatin, Separate injection

| Molecule | Tumor weight (day 1 = 100) ([1]; day 4) | Tumor weight (day 1 = 100) ([1]; day 7) | Tumor weight (day 1 = 100) ([1]; day 11) | Tumor weight (day 1 = 100) ([1]; day 14) | antitumor effect potentiating action, same experiment as Experimental Example 13 [2] | antitumor action potentiating effect, same experiment as Experimental Example 8 ([2]; used in place of hEGF in combination with 5 mg/Kg cisplatin) | binding ability of receptor or biological activity (receptor) | antitumor effect of (a) + (b) (quantity not headed; method of Experimental Example 4) [3, 5] | antitumor effect of (a) + (b) (quantity not headed; method of Experimental Example 4) [3, 6] | antitumor effect of (a) + (b) (quantity not headed; method of Experimental Example 4) ([3]; (a) Cisplatin, Mixed injection) | antitumor effect of (a) + (b) (quantity not headed; method of Experimental Example 4) [3, 7] | antitumor effect of (a) + (b) (quantity not headed; method of Experimental Example 4) ([3]; (a) Tegafur, Mixed injection) | antitumor effect of (a) + (b) (quantity not headed; method of Experimental Example 4) ([3]; (a) Tegafur, Separate injection) | tumor cell growth inhibition, same experiment as Experimental Example 4 ([3]; used in place of hEGF in combination with 5-FU) | tumor cell growth inhibition, same experiment as Experimental Example 14 ([3]; used in place of hEGF in combination with Tegafur) | antitumor effect potentiation, same experiment as Experimental Example 17 [4] |
| --- | --- | --- | --- | --- | --- | --- | --- | --- | --- | --- | --- | --- | --- | --- | --- | --- |
| COc1cccc2c1C(=O)c1c(O)c3c(c(O)c1C2=O)C[C@@](O)(C(=O)CO)C[C@@H]3O[C@H]1C[C@H](N)[C@H](O)[C@H](C)O1 [Adriamycin, adriamycin] | 162.0 ± 5.4 | 221.8 ± 20.1 | 291.8 ± 21.3 | 256.9 ± 12.7 | – | – | – | – | – | – | – | – | – | – | – | – |
| hEGF-II: fragment lacking two amino acid residues on the C-terminal side of hEGF (NSDSECPLSHDGYCLHDGVCMYIEALDKYACNCVVGYIGERCQYRDLKWWE; not fully specified; Epidermal growth factor; UniProt P01133 971-1021, looked up, fragment) | – | – | – | – | the same results | the same results | the same as hEGF | 105.6 | 103.3 | 102.3 | 96.6 | 47.8 | 42.8 | the same results | the same results | the same results |
| hEGF: human epidermal growth factor/urogastrone, 53 amino acid residues, three disulfide bonds | – | – | – | – | the same results | – | – | 103.1 | 98.5 | 88.8 | 80.3 | – | – | – | – | the same results |
